Reference: patent US7173063B1, “Topoisomerase poisons for the treatment of proliferative disorders” (Fred Hutchinson Cancer Research Center, priority 2000, dated 2007)
Like-named read-outs stand apart in the source and are kept apart here.

Key:
[1] = target: T1, Topo I (Saccharomyces cerevisiae, UniProt P04786); test: Yeast toxicity in strains with or without Topo I (rad50 vs rad50 top1); format: cell-based; conditions: rad50 top1 vs rad50 strain
T1 construct: yeast strains that are DSB repair defective, with (rad50) or without Topo I (rad50, top1), and a wild type control (wt); endogenous in cells; host or cells: S. cerevisiae A364a background, rad50 (erg6 pdr1 pdr3), compared with rad50 top1
T1 sequence (P04786 1-769): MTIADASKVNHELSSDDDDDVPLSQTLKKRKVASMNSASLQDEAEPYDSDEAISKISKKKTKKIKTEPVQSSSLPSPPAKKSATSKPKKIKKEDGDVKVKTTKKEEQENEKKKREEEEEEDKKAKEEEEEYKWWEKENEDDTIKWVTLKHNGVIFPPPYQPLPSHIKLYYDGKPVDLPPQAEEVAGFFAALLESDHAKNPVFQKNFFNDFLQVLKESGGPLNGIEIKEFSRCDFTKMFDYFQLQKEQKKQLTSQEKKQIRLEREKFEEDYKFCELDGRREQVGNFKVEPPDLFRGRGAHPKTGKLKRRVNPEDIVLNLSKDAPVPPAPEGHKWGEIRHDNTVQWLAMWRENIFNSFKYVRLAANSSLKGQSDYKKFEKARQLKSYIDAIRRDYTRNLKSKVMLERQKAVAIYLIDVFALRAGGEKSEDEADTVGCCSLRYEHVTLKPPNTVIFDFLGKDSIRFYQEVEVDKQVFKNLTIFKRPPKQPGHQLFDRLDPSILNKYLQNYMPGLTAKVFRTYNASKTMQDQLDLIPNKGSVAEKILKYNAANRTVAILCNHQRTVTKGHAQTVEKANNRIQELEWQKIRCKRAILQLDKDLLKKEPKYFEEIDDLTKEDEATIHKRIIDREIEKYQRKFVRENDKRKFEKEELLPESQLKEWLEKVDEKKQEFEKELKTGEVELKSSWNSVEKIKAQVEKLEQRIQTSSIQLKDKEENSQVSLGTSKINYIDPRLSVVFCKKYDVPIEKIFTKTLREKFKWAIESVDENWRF
Description: (§1) The strains are derived from the A364a genetic background, with the exception of BY4705, which is derived from the S288C background. Gene disruptions were generated by PCR fragment directed replacement (Baudin, et al., Nucleic Acids Research 21: 3329–30 (1993), Guldener, et al., Nucleic Acids Research 24: 2519–24 (1996)). Yeast overexpressing topoisomerase II was constructed by a PCR fragment directed promoter replacement of the topoisomerase II promoter with the yeast GPD promoter flanked upstream by the URA3 marker. All strains (except BY4705) bear the pleitropic drug sensitizing mutations erg6, pdr1, and pdr3 (Balzi, et al., Journal of Bioenergetics & Biomembranes 27: 71–6 (1995), Delaveau, et al, Molecular & General Genetics 244: 501–11 (1994), Gaber, et al., Molecular & Cellular Biology 9: 3447–56 (1989), Saunders, et al., Canadian Journal of Genetics & Cytology, 24: 493–503 (1982). Subik, et al, Current Genetics 10: 665–70 (1986)). The haploid yeast strain BY4705 (Brachmann, et al., Yeast 14: 115–32 (1998)) was used in the experiments described in FIG. 5. Plasmids expressing yeast or human topoisomerase I genes under the GAL promoter (Knab, et al., Journal of Biological Chemistry 268: 22322–30 (1993). Knab, et al., Journal of Biological Chemistry 270: 6141–8 (1995)) were transformed into BY4705 using standard procedures.
Yeast toxicity assays were performed essentially as follows: Exponentially growing cultures of the appropriate strains were diluted in synthetic complete media to a concentration of 7.4×10^4 cells/mL, and aliquots (135 μL) were transferred to each well of clear flat-bottomed 96 well plates. Compounds were added in duplicate or triplicate as 15 μL of the appropriate dilution in 5% DMSO. A 15 μL portion of 5% DMSO was added to control wells. Assay plates were incubated at 30° C. for approximately seven generations growth in solvent control wells (as monitored by OD660, typically 21–24 hours), then the OD660 of the cultures was measured in a microplate reader (Bio-Tek). […]

[2] = system: DSB repair defective rad50 and rad52 strains of Saccharomyces cerevisiae; format: cell-based; conditions: for toxicity in wild-type strains: highest concentration used
Description: as §1
Yeast toxicity assays were performed essentially as follows: Exponentially growing cultures of the appropriate strains were diluted in synthetic complete media to a concentration of 7.4×10^4 cells/mL, and aliquots (135 μL) were transferred to each well of clear flat-bottomed 96 well plates. Compounds were added in duplicate or triplicate as 15 μL of the appropriate dilution in 5% DMSO. A 15 μL portion of 5% DMSO was added to control wells. […] Cell growth (OD660) in treated wells was plotted as a percentage of the growth in at least four averaged solvent control wells for the same strain. Camptothecin sodium salt (camptothecin Na) was the agent used in all yeast assays as standard.

[3] = relative growth (OD660) vs solvent control

SMILES | effect of deletion of the TOP1 gene on toxicity [1] | toxicity in wild-type strains [2] | profile of selective toxicity: toxic to rad50 and rad52 strains, not toxic in rad14 or rad18 strains [2, 3] | influence of sensitizing mutations erg6 pdr1 and pdr3 on yeast sensitivity [2] | profile of selective toxicity: toxic to rad50 and rad52 strains, not toxic in rad14 or rad18 strains [2]
O=c1c(Cl)c(Cl)cnn1CCCl [compound IIa] | greatly reduced | neither compounds Ia or IIa produce toxicity | fit the profile for selective toxicity |  | 
O=C(CCl)Nc1ccc(C(=O)N/N=C/c2ccc(Cl)cc2)cc1 [compound Ia] | greatly reduced | neither compounds Ia or IIa produce toxicity | fit the profile for selective toxicity | strongly influenced | 
CC(=O)[C@]1(O)Cc2c(O)c3c(c(O)c2[C@@H](O[C@H]2C[C@H](N)[C@H](O)[C@H](C)O2)C1)C(=O)c1ccccc1C3=O [idarubicin, reference compound] | little effect |  |  |  | Agents with this profile include
